According to patent publication US7449595B2, “Nitrosated and nitrosylated prostaglandins, compositions and methods of use” (NitroMed, Inc., priority 1999, dated 2008):

Key:
[1] = tested on: human corpus cavernosum tissue; assay: Measurement of cGMP in human corpus cavernosum tissues (ELISA); type: cell-based; details: 5 min incubation after 30 μM Zaprinast and 100 μM IBMX, n=5
Description: Human corpus cavernosum specimens were obtained from impotent men at the time of penile prosthesis insertion. Tissues were maintained at 4-6° C. in M-400 solution (composition per 100 ml: mannitol, 4.19 g; KH2PO4, 0.205 g; K2HPO4.3H2O, 0.97 g; KCl, 0.112 g; NaHCO3, 0.084 g) until used. Corpus cavernosum tissues were typically used between 2 and 16 hours from extraction. Measurement of cyclic GMP in corpus cavernosal tissues was carried out as follows. Corpus cavernosal tissue strips (3×3×7 mm) were immersed in a 8 ml organ chamber containing physiological salt solution, maintained at 37° C. and aerated with 5% CO2/95% air, pH 7.4. […] Tissues were incubated for another 5 minutes then immediately frozen in liquid nitrogen and stored at -80° C. until extraction for cyclic nucleotide assay. Tissues were extracted by homogenization in 6% trichloroacetic acid followed by ether (H2O-saturated) extraction and lyophilization. cGMP levels were determined by ELISA using a kit from Cayman Chemical (Ann Arbor, Mich.). Protein concentration in the corpus cavernosum tissue was determined using the Bio-Rad Protein Assay Kit microtiter plate assay procedure (Bio-Rad, Hercules, Calif.) with bovine serum albumin as the standard. The measured concentrations of cGMP in picomoles were normalized based on milligrams of protein to provide a valid comparison between each tissue sample. […]

[2] = tested on: human corpus cavernosum tissue; assay: Concentration response relaxation studies of human corpus cavernosum tissue strips contracted with phenylephrine; type: cell-based; details: compound alone, strips contracted with 0.5 μM phenylephrine, relaxation as % of 0.1 mM papaverine, n=5, read-out: EC50 (concentration required to obtain the half-maximum response) for relaxation
Description: Human corpus cavernosum specimens were obtained from impotent men at the time of penile prosthesis insertion. Tissues were maintained at 4-6° C. in M-400 solution (composition per 100 ml: mannitol, 4.19 g; KH2PO4, 0.205 g; K2HPO4.3H2O, 0.97 g; KCl, 0.112 g; NaHCO3, 0.084 g) until used. Corpus cavernosum tissues were typically used between 2 and 16 hours from extraction.
Concentration response relaxation studies of human corpus cavernosum tissues were conducted as follows. Corpus cavernosal tissue strips (3×3×7 mm), obtained as described in Example 2, were immersed in a 8 ml organ chamber containing physiological salt solution, maintained at 37° C. and aerated with 5% CO2/95% air, pH 7.4. Each strip was incrementally stretched to optimal isometric tension, as determined by maximal contractile responses to 1 μM phenylephrine. Relaxant responses were evaluated by adding increasing cumulative concentrations of compounds to the strips contracted with 0.5 μM phenylephrine. Relaxation responses were expressed as a percentage of total relaxation induced by the addition of 0.1 mM papaverine hydrochloride (total loss of tone) at the end of the experiment. In FIGS. 2 and 3, the data are expressed as mean±standard error. Statistical analysis were conducted using a two-factor ANOVA statistical analysis using StatView software for Apple computers.
The tissues were prepared according to Example 4. […]

| EC50 [2] | Structure (SMILES) | cGMP production compared to control ([1]; 100 μM GS-NO alone) | cGMP production compared to control ([1]; 1 μM PGE1 alone) |
| --- | --- | --- | --- |
| 2560 ± 1300 nM | N[C@@H](CCC(=O)N[C@@H](CSN=O)C(=O)NCC(=O)O)C(=O)O [GS-NO, N-(N-L-γ-glutamyl-S-Nitroso-L-cysteinyl)glycine] | increased amounts of cGMP |  |
| 83 ± 50 nM | CCCCC[C@H](O)/C=C/[C@H]1[C@H](O)CC(=O)[C@@H]1CCCCCCC(=O)O [PGE1, 7-(5-((1E)(3S)-3-hydroxyoct-1-enyl)(1R,4R,5R)-4-(hydroxy-2-oxocyclopentyl)heptanoic acid)] |  | did not produce a significant amount of cGMP |
